For assay [1], the target named is T1, procaspase-3 (Homo sapiens (Human), UniProt P42574). Kind of assay: In vitro activation of purified procaspase-3 (activation curves, Ac-DEVD-pNA). The following applies: for EC50: Table 3, read-out: EC50 (μM) for procaspase-3 activation; for Activity (direct activation of purified procaspase-3 in vitro): Table 2. The assay is classed as biochemical. The protocol:
Activation curves. […] The plate was read every 2 minutes at 405 nm for 2 hours in a Spectra Max Plus 384 well plate reader. The slope of the linear portion for each well was determined and the fold increase in activation from non-treated control wells was calculated. […]

Assay [2] concerns HL-60 cells. Kind of assay: Cell death induction IC50 (MTS) in HL-60. The format is cell-based, human.
The test system of another assay is HL-60 cell line. As to the kind of experiment: IC50 of PAC-1 derivatives in HL-60 cell line (Table 5). The following applies: for Fold better than PAC-1: HL-60 IC50 relative to PAC-1; for IC50: Homo sapiens, HL-60, Table 5. The format is cell-based. The text has this: The results are indicated in Table 5 (where L- and R-designations refer to structures shown in the AX and BX series above, respectively).

In assay [3] the test system is HL-60 cells. Kind of assay: Apoptosis induction assay in HL-60 cells, 72 hrs (Table 6). The assay is classed as cell-based. How it is done:
Compounds DX1-DX17 were tested using the HL-60 cell line for the ability to effect apoptosis, and IC50 values were determined. Activity levels of compounds from assays of 72 hrs duration with HL-60 cells are shown in Table 6 and along with structures in FIG. 12.

Assay [4] has as its target T1, procaspase-3. As to the kind of experiment: Western blot of in vitro procaspase-3 activation by DX compounds. The following applies: 50 micromolar compound, about 35 nanomolar procaspase-3, 8 hr. The format is biochemical. How it is done: Certain compounds were also tested for the ability to effect in vitro activation of procaspase-3.
A general note: In western blotting, separated proteins are transferred to a membrane and probed.

Assay [5] has as its system UACC-62 melanoma cell line. As to the kind of experiment: Cell death IC50 (MTS) in UACC-62. The format is cell-based. The following applies: etoposide, 24 hours; read-out: IC50 for inducing death, UACC-62.
The test system of assay [6] is B16-F10 melanoma cell line. As to the kind of experiment: Cell death IC50 (MTS) in B16-F10. The format is cell-based. Conditions: etoposide, 24 hours; read-out: IC50 for inducing death, B16-F10.
Assay [7] concerns Hs 578t breast cancer cell line. As to the kind of experiment: Cell death IC50 (MTS) in Hs 578t. The assay is classed as cell-based. The following applies: etoposide, 24 hours; read-out: IC50 for inducing death, Hs 578t.
Another assay deals with U-937. As to the kind of experiment: Cell death IC50 (MTS) in U-937. The following applies: etoposide, 24 hours; read-out: IC50 for inducing death, U-937. The assay is classed as cell-based.
Assay [8] concerns CRL-1872 melanoma cell line. As to the kind of experiment: Cell death IC50 (MTS) in CRL-1872. The assay is classed as cell-based. Conditions: etoposide, 24 hours; read-out: IC50 for inducing death, CRL-1872.
The subject of another assay is PC-12. Kind of assay: Cell death IC50 (MTS) in PC-12. The following applies: etoposide, 24 hours; read-out: IC50 for inducing death, PC-12. The assay is classed as cell-based.
A further assay relates to SK-N-SH. Kind of assay: Cell death IC50 (MTS) in SK-N-SH. The assay is classed as cell-based. Conditions: etoposide, 24 hours; read-out: IC50 for inducing death, SK-N-SH.
Assay [9] deals with NCI-H226 lung cancer cell line. As to the kind of experiment: Cell death IC50 (MTS) in NCI-H226. The format is cell-based. The following applies: etoposide, 24 hours; read-out: IC50 for inducing death, NCI-H226.
Setting [10] is: Homo sapiens, HL-60, Table 3, read-out: IC50 (μM) for death induction in HL-60 cells.

Where only a bound is given, the exact number is not on record here.

The source of these data is patent US10166229B2, “Compounds and methods for the treatment of cancer” (The Board of Trustees of the University of Illinois, priority 2005, dated 2019).

T1 sequence (P42574 whole entry): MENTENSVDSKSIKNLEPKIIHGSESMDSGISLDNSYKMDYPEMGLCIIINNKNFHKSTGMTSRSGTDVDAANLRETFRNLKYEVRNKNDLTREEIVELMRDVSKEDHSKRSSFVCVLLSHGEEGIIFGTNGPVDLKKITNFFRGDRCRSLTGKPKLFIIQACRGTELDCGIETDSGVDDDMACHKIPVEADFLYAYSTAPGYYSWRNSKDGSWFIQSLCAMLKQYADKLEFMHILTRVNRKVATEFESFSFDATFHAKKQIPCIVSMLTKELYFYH

One may read the EC50 as the concentration at which the effect is half-maximal. For orientation: IC50 means the concentration needed to halve the response being measured. Take `CCOC(=O)CN1CCN(Cc2ccccc2)CC1`: on procaspase-3 [1], the 50% effective concentration (EC50) was > 50 µM. For the same compound, the IC50 with HL-60 cells [2] (setting [10]) was > 100 µM.
In the case of `O=C(CN1CCN(Cc2ccc(OCc3ccccc3)c(OCc3ccccc3)c2)CC1)N/N=C/c1c(O)ccc2ccccc12` [Compound L09R08], in the assay on HL-60 cell line, the “Fold better than PAC-1” value is on record as 22.6-fold and 2.42 µM corresponded to half-maximal inhibition (IC50).
Turning to `O=C(CN1CCNCC1)N/N=C/c1ccccc1O`, at procaspase-3 [1], the EC50 was > 50 µM. Moreover, the IC50 in the assay on HL-60 cells [2] (setting [10]) is > 100 µM.
On to `CC(C)(C)c1cc(/C=N/NC(=O)CN2CCN(Cc3ccc(CCc4ccccc4)cc3)CC2)c(O)c(C(C)(C)C)c1` [Compound L08R06], for which, in the assay on HL-60 cell line, the “Fold better than PAC-1” value is given as 10.3-fold and half-maximal inhibition (IC50) required 5.31 µM.
Consider `c1ccc(CN2CCN(Cc3ccccc3)CC2)cc1`, for which the EC50 at procaspase-3 [1] is > 50 µM. The IC50 with HL-60 cells [2] (setting [10]) was > 100 µM.
For `CC(C)(C)c1ccc(CN2CCN(CC(=O)N/N=C/c3cc(C(C)(C)C)cc(C(C)(C)C)c3O)CC2)cc1` [Compound L02R06], in the assay on HL-60 cell line, the “Fold better than PAC-1” value is 8.4-fold and it took 6.53 µM to reach half-maximal inhibition (IC50).
As for `NNC(=O)CN1CCN(Cc2ccccc2)CC1` [Compound 4], the “Activity (direct activation of purified procaspase-3 in vitro)” value (shortened to “Activity”) on procaspase-3 [1] is reported as “Inactive”.
Turning to `c1ccc(CN2CCNCC2)cc1` [drawing 33], at procaspase-3 [1], the 50% effective concentration (EC50) was > 50 µM. Moreover, the IC50 in the assay on HL-60 cells [2] (setting [10]) is > 100 µM.
In the same order, the values of `CCOC(=O)CN1CCNCC1` are > 50 µM and > 100 µM.
Consider `NNC(=O)CN1CCN(Cc2ccccc2)CC1` [drawing 29], for which the EC50 at procaspase-3 [1] was > 50 µM. Also, the IC50 with HL-60 cells [2] (setting [10]) was > 100 µM.
Take `C=CCc1cccc(/C=N/NC(=O)CN2CCN(Cc3ccc(OCc4ccccc4)c(OCc4ccccc4)c3)CC2)c1O` [Compound L09R03]: in the assay on HL-60 cell line, the “Fold better than PAC-1” value is 11.3-fold and 4.82 µM corresponded to half-maximal inhibition (IC50).
Compound `O=C(CN1CCN(Cc2ccccc2)CC1)N/N=C/c1ccccc1O` [de-allyl PAC-1] yielded an IC50 with HL-60 cells [3] (Homo sapiens) of 8.7 µM.
For the compound `C=CCc1cccc(/C=N/NC(=O)CN2CCN(Cc3ccc(C(C)(C)C)cc3)CC2)c1O` [Compound L02R03], in the assay with HL-60 cell line, the “Fold better than PAC-1” value is listed as 12.6-fold and the IC50 turned out to be 4.34 µM.
`C=CCc1cccc(/C=N/NC(=O)CN2CCC(Cc3ccccc3)CC2)c1O` [DX11] yielded a half-inhibitory concentration (IC50) in the assay with HL-60 cells [3] of 3.2 µM. The “in vitro activation of procaspase-3 (Western blot) relative to control” value on procaspase-3 [4] is given as “substantial activity levels”.
Consider `O=C(CN1CCN(Cc2ccccc2)CC1)N/N=C/c1ccccc1` [drawing 26], for which the EC50 on procaspase-3 [1] is > 50 µM. In addition, in the assay with HL-60 cells [2] (setting [10]), the IC50 is > 100 µM.
As for `CN1CCN(CC(=O)N/N=C/c2ccccc2O)CC1` [Compound 6], the “Activity” value at procaspase-3 [1] is given as “Inactive”.
Take `C/C=N/NC(=O)CN1CCN(Cc2ccccc2)CC1`: the 50% effective concentration (EC50) at procaspase-3 [1] was > 50 µM. Moreover, in the assay with HL-60 cells [2] (setting [10]), the half-inhibitory concentration (IC50) was > 100 µM.
With `CC(C)(C)c1cc(/C=N/NC(=O)CN2CCN(Cc3ccccc3)CC2)c(O)c(C(C)(C)C)c1` [Compound L01R06], in the assay on HL-60 cell line, the “Fold better than PAC-1” value is on record as 9.7-fold and inhibition was half-maximal at 5.63 µM (IC50).
Consider `c1ccc(CN2CCNCC2)cc1` [Compound 2], for which the “Activity” value at procaspase-3 [1] is listed as “Inactive”.
Take `O=C(CN1CCN(Cc2ccccc2)CC1)N/N=C/c1ccccc1` [Compound 7]: the “Activity” value at procaspase-3 [1] is recorded as “Inactive”.
For `COc1cc([C@@H]2c3cc4c(cc3[C@@H](O[C@@H]3O[C@@H]5CO[C@@H](C)O[C@H]5[C@H](O)[C@H]3O)[C@H]3COC(=O)[C@H]23)OCO4)cc(OC)c1O` [etoposide], the concentration for half-maximal inhibition (IC50) in [5] is > 50 µM; in the assay with HL-60 cells [2] (etoposide, 24 hours, read-out: IC50 for inducing death, HL-60), < 1 µM; in assay [6], > 50 µM; in assay [7] it was > 50 µM; in the assay with U-937 it was < 1000 nM; in [8], > 50 µM. The concentration for half-maximal inhibition (IC50) in the assay on PC-12 is < 1000 nM; in the assay on SK-N-SH, < 1000 nM; in assay [9] it was > 50 µM.
For `CC(C)(C)c1cc(/C=N/NC(=O)CN2CCN(Cc3ccc(OCc4ccccc4)c(OCc4ccccc4)c3)CC2)c(O)c(C(C)(C)C)c1` [Compound L09R06], in the assay with HL-60 cell line, the “Fold better than PAC-1” value is listed as 13.1-fold and the IC50 was found to be 4.17 µM.
